Results on 2 compounds are retold here after ChEMBL document CHEMBL3244265, “Preparation and biological actions of some symmetrically N,N-disubstituted dopamines” (J Med Chem, 1978).

SMILES strings stand for the structures. Calls of active or inactive are those of the source. The calls are words filed in the database; no cut-off is given here.

Experiment [1] has as its system Rattus norvegicus. Description: Induction of stereotyped behaviour in sc dosed Sprague-Dawley rat assessed as duration of action. In kind it is functional.
Experiment [2] deals with Rattus norvegicus. Description: Induction of circling behaviour in sc dosed Sprague-Dawley rat assessed as onset of action. In kind it is functional.
The subject of experiment [3] is Rattus norvegicus. The experiment can be described thus: Induction of circling behaviour in sc dosed Sprague-Dawley rat assessed as duration of action. Type of experiment: functional.
For experiment [4], the system named is Felis catus. Description: Inhibition of 2 Hz electric current-induced cardioaccelerator nerve stimulation in iv dosed cat by cardiotachometer analysis. Type of experiment: functional.
For experiment [5], the species on record is Felis catus. Description: Agonist activity at dopamine receptor in cat right atrium assessed as inhibition of cardiaccelerator nerve stimulation rate by cardiotachometer analysis. Type of experiment: tissue-based. The following applies: Cardiac atrium.
The test system of experiment [6] is Felis catus. Description: Inhibition of 2 Hz electric current-induced cardioaccelerator nerve stimulation in iv dosed cat by cardiotachometer analysis in presence of 0.2 mg/kg, iv haloperidol. Type of experiment: functional, organism-based. The arrangement: dose 0.2 mg/kg. The conditions noted are these: at 0.2 mg/kg.
In experiment [7] the test system is Rattus norvegicus. Description: Induction of circling behaviour in sc dosed Sprague-Dawley rat assessed as reversal of spontaneous ipsilateral to contralateral circling response. Type of experiment: functional, organism-based.
In experiment [8] the test system is Rattus norvegicus. The experiment can be described thus: Induction of circling behaviour in sc dosed Sprague-Dawley rat in presence of 5 mg/kg aceperone. The arrangement: dose 5 mg/kg. In kind it is functional, organism-based.
In experiment [9] the test system is Rattus norvegicus. Description: Induction of circling behaviour in sc dosed Sprague-Dawley rat in presence of 5 mg/kg propranolol. Type of experiment: functional, organism-based. Further details: dose 5 mg/kg.
Experiment [10] has as its system Rattus norvegicus. The experiment can be described thus: Induction of circling behaviour in sc dosed Sprague-Dawley rat in presence of 0.8 mg/kg haloperidol. The arrangement: dose 0.8 mg/kg. In kind it is functional, organism-based.
The test system of experiment [11] is Canis familiaris. Description: Induction of emesis in sc dosed dog. Type of experiment: functional. The conditions noted are these: Canis lupus familiaris.
For experiment [12], the system named is Columba livia. Description: Induction of pecking in pigeon at 1.62 umol/kg, im. In kind it is functional, organism-based.
The test system of experiment [13] is Rattus norvegicus. Description: Induction of stereotyped behaviour in sc dosed Sprague-Dawley rat assessed as onset of action. In kind it is functional.
The subject of experiment [14] is Rattus norvegicus. The experiment can be described thus: Induction of stereotyped behaviour in sc dosed Sprague-Dawley rat. In kind it is functional, organism-based.
Experiment [15] relates to Felis catus. The experiment can be described thus: Hypotensive activity in iv dosed cat in presence of haloperidol. Type of experiment: functional, organism-based.
In experiment [16] the test system is Rattus norvegicus. The experiment can be described thus: Induction of stereotyped behaviour in Sprague-Dawley rat administered into caudate putamen in presence of 0.2 to 0.8 mg/kg haloperidol. In kind it is functional, organism-based.
For experiment [17], the system named is Felis catus. Description: Inhibition of 2 Hz electric current-induced cardioaccelerator nerve stimulation in iv dosed cat by cardiotachometer analysis in presence of 2 mg/kg, iv phentolamine. Further details: dose 2 mg/kg. The conditions noted are these: at 2 mg/kg. In kind it is functional, organism-based.
The subject of experiment [18] is Rattus norvegicus. The experiment can be described thus: Induction of hyperactivity in Sprague-Dawley rat at 40 mg/kg, sc pretreated for 18 hrs with 5 mg/kg reserpine and 6 hrs with 250 mg/kg alpha-methyl-p-tyrosine. In kind it is functional, organism-based.
Experiment [19] relates to Rattus norvegicus. The experiment can be described thus: Induction of circling behaviour in Sprague-Dawley rat administered into nucleus accumbens in presence of haloperidol. In kind it is functional, organism-based.
Experiment [20] has as its system Rattus norvegicus. Description: Induction of hyperactivity in Sprague-Dawley rat administered into nucleus accumbens in presence of 0.2 to 0.8 mg/kg haloperidol. Type of experiment: functional, organism-based.
Experiment [21] relates to Rattus norvegicus. Description: Induction of stereotyped behaviour in sc dosed Sprague-Dawley rat pretreated for 30 mins with 0.4 mg/kg haloperidol. In kind it is functional, organism-based. Further details: dose 0.4 mg/kg.
The test system of experiment [22] is Columba livia. Description: Induction of pecking in im dosed pigeon. In kind it is functional, organism-based.
Experiment [23] concerns Rattus norvegicus. The experiment can be described thus: Induction of stereotyped behaviour in Sprague-Dawley rat administered into nucleus accumbens in presence of 0.2 to 0.8 mg/kg haloperidol. In kind it is functional, organism-based.
Experiment [24] relates to Felis catus. The experiment can be described thus: Hypotensive activity in iv dosed cat. In kind it is functional, organism-based.
Experiment [25] has as its system Felis catus. Description: Effect on heart rate in iv dosed cat. Type of experiment: functional, organism-based.
For experiment [26], the system named is Columba livia. The experiment can be described thus: Antagonism of apomorphine-induced pecking in im dosed pigeon treated 15 mins prior to apomorphine challenge. In kind it is functional.
In experiment [27] the test system is Rattus norvegicus. Description: Induction of hyperactivity in Sprague-Dawley rat at 40 mg/kg, sc pretreated for 30 mins with 0.4 mg/kg haloperidol. Type of experiment: functional, organism-based.
Experiment [28] relates to Rattus norvegicus. The experiment can be described thus: Induction of hyperactivity in Sprague-Dawley rat at 40 mg/kg, sc pretreated for 30 mins with 5 mg/kg propranolol. In kind it is functional, organism-based.
In experiment [29] the test system is Rattus norvegicus. The experiment can be described thus: Induction of circling behaviour in Sprague-Dawley rat administered into caudate putamen in presence of haloperidol. Type of experiment: functional, organism-based.
Experiment [30] relates to Rattus norvegicus. The experiment can be described thus: Induction of hyperactivity in Sprague-Dawley rat administered into caudate putamen in presence of 0.2 to 0.8 mg/kg haloperidol. In kind it is functional, organism-based.
Experiment [31] concerns Rattus norvegicus. Description: Induction of hyperactivity in Sprague-Dawley rat at 40 mg/kg, sc pretreated for 30 mins with 5 mg/kg aceperone. In kind it is functional, organism-based.
Experiment [32] concerns Felis catus. The experiment can be described thus: Inhibition of 10 Hz electric current-induced cardioaccelerator nerve stimulation in iv dosed cat by cardiotachometer analysis. In kind it is functional, organism-based.
For experiment [33], the system named is Rattus norvegicus. Description: Induction of hyperactivity in Sprague-Dawley rat at 40 mg/kg, sc. The arrangement: dose 40 mg/kg. Type of experiment: functional, organism-based.
Experiment [34] has as its system Rattus norvegicus. The experiment can be described thus: Effect on motor function in Sprague-Dawley rat administered into caudate putamen. In kind it is functional, organism-based.

Take `CN1CCc2cccc3c2[C@H]1Cc1ccc(O)c(O)c1-3.CN1CCc2cccc3c2[C@H]1Cc1ccc(O)c(O)c1-3.Cl.Cl.O` [APOMORPHINE HYDROCHLORIDE]: the Time in experiment [1] is 20 min; in experiment [2], 3 min; in experiment [3], 40 min; in experiment [13] it was less than 5 min. Also, the values for the ED50 in [4], in [5] and in [11] were 0.1 µmol/kg, 43 nM and 0.13 µmol/kg, respectively. Also, in [6], the inhibition entry is “inactive”. In addition, the result in [7], in [8], in [9] and in [12] was Active. Besides, the result in experiment [10] was inactive. The Activity result in experiment [14] was “Dose-dependent effect”.

As to `CCCN(CCC)CCc1ccc(O)c(O)c1`, the Time in experiment [1] is 10 min; in experiment [2], 3 min; in experiment [3] it was 5 min; in experiment [13], less than 5 min. For the same compound, the outcome in experiment [15], in [16], in experiment [19], in [20], in experiment [21] and in experiment [22] was inactive. The outcome in [23], in [25], in experiment [27], in experiment [10], in experiment [29] and in experiment [30] was inactive. Besides, the outcome in experiment [34] was inactive. Besides, the inhibition entry in experiment [17] is “Active”. Also, the result in experiment [18], in experiment [24], in experiment [28], in [31] and in experiment [33] was Active. The ED50 in experiment [4] was 0.068 µmol/kg; in experiment [5], 420 nM; in experiment [26], 56 µmol/kg; in [11], 1 mg/kg. Besides, the inhibition result in experiment [6] and in experiment [32] was “inactive” in each case. Moreover, the Activity entry in [14] is “Dose-dependent effect”.
